These results are taken from US20250270191A1, “QUINOLONE BCL6 BIFUNCTIONAL DEGRADERS” (Treeline Biosciences, Inc., priority 2022, published 2025).

The test has as its target T1, Human BCL6 protein (N-terminal HiBiT tagged BCL6 in HT1080 cells) (Homo sapiens, UniProt P41182+Q96SW2).
T1 construct: Human BCL6 protein coding open reading frame; expressed in transfected cells; host or cells: HT1080 (ATCC CCL-121), stably transduced with lentivirus pLV-UBC-N-HiBiT-BCL6-PGK-puro
Put plainly: HiBiT based BCL6 degradation assay. Format: cell-based. The note with it: HT1080 cells expressing N-terminal HiBiT tagged BCL6; 5 hours incubation; BCL6 degradation normalized with DMSO control. The text has this:
Human BCL6 protein coding open reading frame fused with N-terminal HiBiT coding sequence was synthesized from Integrated DNA Technologies (IDT). Next, the N-HiBiT-BCL6 sequence was cloned into pLV-UBC-PGK-Puro, a lentivirus plasmid purchased from Vectorbuilder, to generate pLV-UBC-N-HiBiT-BCL6-PGK-puro. Lentiviral particles were generated from Lenti-X™ 293T cells (Clontech) by co-transfection of pLV-UBC-N-HiBiT-BCL6-PGK-puro plasmids and lentiviral packaging plasmid mix (Cellecta). HT1080 [HT1080] (ATCC CCL-121) cells were infected with the lentivirus, and HT1080 cells stably integrated with the lentiviral vectors were established by incubation with 1 μg/mL puromycin (Thermofisher).
HT1080 cells expressing N-terminal HiBiT tagged BCL6 were dispensed into a 384-well plate pre-spotted with compounds at varying concentrations. Five thousand cells were seeded into each well in 40 μL of RPMI 1640 media plus 10% Fetal Bovine Serum (10082-147, Thermofisher). After 5 hours of incubation at 37° C. with 5% CO2, 30 μL of the NANO-GLO® HiBiT Lytic Detection System working solution (Promega) was added to each well and incubated at room temperature for 15 min. After incubation, luminescence was read on a PHERAstar FSX Plate Reader (BMG). BCL6 degradation at each indicated concentration was normalized with DMSO control. The BCL6 degradation curves were plotted using a four-parameter logistic model.
On to `CNC(=O)COc1cc2cc(Nc3nc(NCc4ccc(CNc5cccc6c(C7CCC(=O)NC7=O)nn(C)c56)cc4)ncc3Cl)ccc2n(C)c1=O` (stereo not shown) [Compound 318, 2-((6-((5-chloro-2-((4-(((3-(2,6-dioxopiperidin-3-yl)-1-methyl-1H-indazol-7-yl)amino)methyl)benzyl)amino)pyrimidin-4-yl)amino)-1-methyl-2-oxo-1,2-dihydroquinolin-3-yl)oxy)-N-methylacetamide], for which the “Ymin (5 hr)” value is on record as “++ (50% < Ymin ≤ 70%)”. With `CNC(=O)COc1cc2cc(Nc3nc(N4CCC(CC5CCN(c6cccc7c(C8CCC(=O)NC8=O)nn(C)c67)CC5)CC4)ncc3Cl)ccc2n(C)c1=O` (stereo not shown) [Compound 281, 2-((6-((5-chloro-2-(4-((1-(3-(2,6-dioxopiperidin-3-yl)-1-methyl-1H-indazol-7-yl)piperidin-4-yl)methyl)piperidin-1-yl)pyrimidin-4-yl)amino)-1-methyl-2-oxo-1,2-dihydroquinolin-3-yl)oxy)-N-methylacetamide] the entry was “+++ (25% < Ymin ≤ 50%)”; with `CNC(=O)COc1cc2cc(Nc3nc(N4CCC(CN5CCN(c6cccc7c(C8CCC(=O)NC8=O)nn(C)c67)CC5)CC4)ncc3Cl)ccc2n(C)c1=O` (stereo not shown) [Compound 333, 2-((6-((5-chloro-2-(4-((4-(3-(2,6-dioxopiperidin-3-yl)-1-methyl-1H-indazol-7-yl)piperazin-1-yl)methyl)piperidin-1-yl)pyrimidin-4-yl)amino)-1-methyl-2-oxo-1,2-dihydroquinolin-3-yl)oxy)-N-methylacetamide], “++++ (Ymin ≤ 25%)”; with `CNC(=O)COc1cc2cc(Nc3nc(N4CCC[C@@H](COc5ccc6c(C7CCC(=O)NC7=O)nn(C)c6c5)C4)ncc3Cl)ccc2n(C)c1=O` (stereo partly drawn) [Compound 302b, 2-((6-((5-chloro-2-((3R)-3-(((3-(2,6-dioxopiperidin-3-yl)-1-methyl-1H-indazol-6-yl)oxy)methyl)piperidin-1-yl)pyrimidin-4-yl)amino)-1-methyl-2-oxo-1,2-dihydroquinolin-3-yl)oxy)-N-methylacetamide], “++ (50% < Ymin ≤ 70%)”.

As for `CNC(=O)COc1cc2cc(Nc3nc(N4CCC[C@H](Nc5ccc6c(C7CCC(=O)NC7=O)nn(C)c6c5)C4)ncc3Cl)ccc2n(C)c1=O` (stereo partly drawn) [Compound 280a, 2-((6-((5-chloro-2-((3S)-3-((3-(2,6-dioxopiperidin-3-yl)-1-methyl-1H-indazol-6-yl)amino)piperidin-1-yl)pyrimidin-4-yl)amino)-1-methyl-2-oxo-1,2-dihydroquinolin-3-yl)oxy)-N-methylacetamide], the “Ymin (5 hr)” value is “++ (50% < Ymin ≤ 70%)”.

On to `CNC(=O)COc1cc2cc(Nc3nc(N4CCC(C(=O)N5CCN(c6cccc7c(C8CCC(=O)NC8=O)nn(C)c67)CC5)CC4)ncc3Cl)ccc2n(C)c1=O` (stereo not shown) [Compound 327, 2-((6-((5-chloro-2-(4-(4-(3-(2,6-dioxopiperidin-3-yl)-1-methyl-1H-indazol-7-yl)piperazine-1-carbonyl)piperidin-1-yl)pyrimidin-4-yl)amino)-1-methyl-2-oxo-1,2-dihydroquinolin-3-yl)oxy)-N-methylacetamide], for which the “Ymin (5 hr)” value is recorded as “++++ (Ymin ≤ 25%)”. As for `CNC(=O)COc1cc2cc(Nc3nc(N4CCC[C@@H](CNc5ccc6c(C7CCC(=O)NC7=O)nn(C)c6c5)C4)ncc3Cl)ccc2n(C)c1=O` (stereo partly drawn) [Compound 261a, 2-((6-((5-chloro-2-((3S)-3-(((3-(2,6-dioxopiperidin-3-yl)-1-methyl-1H-indazol-6-yl)amino)methyl)piperidin-1-yl)pyrimidin-4-yl)amino)-1-methyl-2-oxo-1,2-dihydroquinolin-3-yl)oxy)-N-methylacetamide], the “Ymin (5 hr)” value is “++ (50% < Ymin ≤ 70%)”.
